Experiment [1] relates to Staphylococcus aureus infected wounds. The experiment can be described thus: Wound healing activity, excision wound model. The class given is in vivo, guinea pig. How it is done: Swiss albino mice (20-25 g), male Sprague-Dawley rats (160-180 g) and male guinea pigs (240-260 g) were employed in the study. The animals were left for 2 weeks at room conditions to ensure stabilization before use. They were maintained on standard pellet diet and water ad libitum throughout the experiment. • a) Acute Toxicity: Mice were divided into groups of 6 and the methanol extracts of C. blakesleeana, C. elegans and C. homothallica were administered orally in increasing doses. […] Rats of the 1^St group were given a vehicle (1% v/v Tween 80) in a dose of 5 ml kg^−1 and left as normal control. Rats of the 2nd, 3rd, and 4th groups were administered the methanol extracts of C. blakesleeana, C. elegans and C. homothallica, respectively in a dose of 200 mg kg^−1. All medications were administered orally via the aid of an oral tube for 35 days. […] At the end of the experimental period, blood samples (2 mL) were collected from the retro-orbital venous plexus of each rat (under ether anesthesia) into clean centrifuge tubes. The blood samples were allowed to clot at room temperature for 30 min after which they were centrifuged at 10,000 rpm for 5 minutes. Sera were separate with Pasteur pipette into sterile serum sample tubes and used for biochemical assay.
Measurement of Liver and Kidney Function Markers: • Liver functions were evaluated by measuring the serum activity of aspartate aminotransferase (AST) and alanine aminotransferase (ALT) following the method of Reitman and Frankel, Am. J. Clin. Path., 28: 55-60, alkaline phosphatase enzyme (ALP) by the method of Babson et al., Clinical Chemistry, 12: 482-490. Serum levels of total bilirubin, total proteins and albumin were also assayed. Globulin was obtained from the difference between total proteins and albumin. Serum concentrations of uric acid, urea and creatinine were determined colormetrically as measures of kidney functions. All measurements were carried out by protocols well known in the art. • c) Wound Healing Activity: The excision wound model was used to monitor wound contraction and wound closure time. Four groups of male guinea pigs were used in the experiment with 6 animals in each group. At the beginning of the experiment, the dorsal skin of each guinea pig was shaved with an electric clipper. After 24 hours, all animals were anesthetized by diethyl ether and the shaved areas were sterilized with 70% alcoholic solution. A predetermined dorsal area (15 mm×20 mm) was inflicted by cutting away a full thickness of skin (2 mm depth) using toothed forceps, scalpel and pointed scissors. A fresh surgical blade was used for the perpendicular cut in each animal and tension of skin was kept constant during the procedure. Local infection with Staphylococcus aureus was introduced into wounds using 0.5 mL of 10^8 bacteria mL^−1 inoculums. The wounds were left undressed to the open environment and the animals were kept individually in separate cages. • Wounds treatment: Wounds were air exposed and treatment began 24 h after injury. Wounds of the control animals were treated with the vehicle (1% v/v Tween 80). Guinea pigs of the second and third group were treated with total alcohol extract of C. elegans and the isolated compound (adenosine) in a concentration of 5 mg mL^−1, while animals of the fourth group were medicated with latamoxef (Moxalactam)® in a concentration of 30 μg mL^−1 (Reference group). The vehicle, extract, and reference drug were applied topically on the wound surface once a day for 18 days. […] of each tested material was applied slowly, using an insulin syringe, from the central point extending outside the wound area to ensure inclusion of the edges. Swabs were taken on day 5 to confirm the presence of the expected organisms in the pus. • Assessment of wound healing: The wound areas were measured while the animals were under anaesthesia on days 0, 4, 7, 10, 14, and 18 post-wounding by tracing the wound areas onto a transparent tracing paper. […]

In experiment [2] the test system is Staphylococcus aureus. Put plainly: Minimum inhibitory concentration, agar well diffusion. The class given is cell-based. The note with it: against Staphylococcus aureus. An excerpt:
For antimicrobial screening the well known disc diffusion and agar well diffusion methods were used, together with the determination of minimum inhibitory concentration (MIC), see Duguid et al., Microbial Infections, The English Language Book Society, Churchill Livingston, Edingburgh, London, 1978; vol. 1, page 110.
Agar well diffusion method: On the other hand, the agar well diffusion method was employed for determination of the minimum inhibitory concentration (MIC). The test organisms were separately seeded in the agar medium. The wells (10 mm in diameter) were cut from the agar and […] (different concentrations) was transferred into them. After incubation period, following suitable conditions for the test organism, the diameter of the inhibition zone around the discs was measured in millimeters. The obtained result was the mean of three experiments.
The minimum inhibitory concentration (MIC) of Cunninghamella blakesleeana, C. elegans, C. homothallica and successive extracts and isolated compounds of Cunninghamella elegans against Staphylococcus aureus was determined.
Minimum inhibitory concentration (MIC): The lowest concentration of an antimicrobial agent that will inhibit a visible growth of a microorganism after overnight incubation.
A general note: A growth-free zone around the sample is the usual read-out of agar diffusion tests.

Setting [3] is: topical 5 mg mL^−1 once a day, n = 6.
Setting [4] is: topical 5 mg mL^−1 once a day, n = 6, listed as compound 1 (adenosine).

The structures appear in SMILES notation. Values after ≈ are worked out from the molar mass of the structure shown. “Also recorded” adds a separate entry of the source. Marks after values point to notes of the source that are not given here.

`Nc1ncnc2c1ncn2C1OC(CO)C(O)C1O` (stereo not shown) [Compound 4, 2-(6-amino-9H-purine-9-yl)-5-(hydroxymethyl)oxolane-3,4-diol] returned a wound contraction in experiment [1] (Day 14, topical 5 mg mL^−1) of 76.50%. The “Wound area on day 0” value in experiment [1] (day 0, topical 5 mg mL^−1 once a day, n = 6) is 300 ± 0.0 mm^2. In addition, the “Wound area on day 4” value in experiment [1] (day 4, topical 5 mg mL^−1 once a day, n = 6) is recorded as 241.2 ± 4.23* mm^2. The “Wound area on day 7” value in experiment [1] (day 7, topical 5 mg mL^−1 once a day, n = 6) was 168.1 ± 2.18** mm^2. In experiment [1] (setting [3]), the “Wound area on day 10” value was 83.4±3.16 mm^2, the “Wound area on day 14” value worked out at 22.4±1.15 mm^2 and the “Wound area on day 18” value is listed as 0.0 mm^2. For the same molecule, in experiment [1] (setting [4]), the “Wound area on day 10” value was 85.6 ± 4.13*** mm^2, the “Wound area on day 14” value was 23.3 ± 1.11*** mm^2 and the “Wound area on day 18” value amounted to 0.0 ± 0.0 mm^2. For the same molecule, in experiment [1] (topical 5 mg mL−1 on excised infected wound), the “wound healing effect (in words)” value is listed as “effective in healing excision type of wounds; also recorded: good wound healing effect”. This molecule returned a Minimum inhibitory concentration in experiment [2] of 020 µg/mL (≈ 74.8 µM). The MIC in experiment [2] (read-out: Minimum inhibitory concentration) was found to be 20 µg/mL (≈ 74.8 µM).

The values are drawn from patent US20130224239A1, “ALCOHOLIC EXTRACT OF FUNGI OF GENUS […] AND USE THEREOF” (KING SAUD UNIVERSITY, priority 2011, published 2013).
